Results reported in patent EP0079397A1, “Asymmetrically substituted (2,4,6-triodoanilides) of dicarboxylic acids, their preparation and X-ray contrast agents containing them” (SCHERING AKTIENGESELLSCHAFT, priority 1981, dated 1983).
Read-outs that look alike come from different tables or passages of the source. Each block holds one compound with its values, some of them ahead of it.

What was measured:
[1] = Partition coefficient butanol/water; assay type: physicochemical; settings: meglumine salts
[2] = Protein binding to human serum; assay type: in vitro ADME; settings: at ca. 1,2 mg Jod/ml, meglumine salts, read-out: Proteinbindung an Humanserum (converted)
[3] = test system: Ratte; assay: Acute intravenous toxicity (DL50) in rats; assay type: in vivo; settings: meglumine salt solutions 180 mg Jod/ml, 0,8 ml/min, 100 g rats
Procedure: (§1) • 1) Injektion der Kontrastmittel als Megluminsalzlösungen mit 180 mg Jod/ml mit einer Geschwindigkeit von 0,8 ml/min bei 100 g schweren männlichen und weiblichen Ratten. • 2) Männlichen und weiblichen Ratten im Gewicht von etwa 100 g wurden in leichter Äthernarkose je 0,04 ml unterschiedlich konzentrierter Kontrastmittellösungen nach der Methode von Valzelli durch eine natürliche Knochenspalte des Schädels zwischen Joch- und Hinterhauptbein intrazerebral injiziert. Die Injektion erfolgte mit einer Hamilton Spritze 710 N, bei der die Einstichtiefe auf 10 mm begrenzt ist. Je Präparat wurden mindestens 4 Dosierungen an 10 Tieren untersucht. Als Wirkungskriterien wurden über den Zeitraum von 24 Stunden Exzitationszustände, schwere Haltungsanomalien, Koma und Tod bewertet. • 3) Bei grundsätzlich gleicher Versuchsanlage wie unter 2) beschrieben, wurden 200-250 g schweren Ratten die Kontrastmittel in die Cisterna suboccipitalis injiziert. Die Kontrastmittel wurden mit 3%iger Mannit-lösung verdünnt, um den osmotischen Druck anzupassen. • 4) Ratten (ca. 150 g Körpergewicht) wurde in Ithernarkose ein Polyäthylenschlauch in den Ductus choledochus eingebunden. […]

[4] = test system: Ratte; assay: Neural tolerance after pericerebral injection in rats (method of Valzelli); assay type: in vivo; settings: 0,04 ml injected, ca. 100 g rats, 24 h observation: excitation, posture anomalies, coma, death
Procedure: as §1

[5] = test system: Ratte; assay: Neural tolerance after intracisternal injection in rats; assay type: in vivo; settings: injection into Cisterna suboccipitalis, 200-250 g rats, diluted with 3% mannitol solution
Procedure: as §1

[6] = in vivo; set-up: species or system Ratte; settings: rat, iv, 60 mg/kg
Procedure: • 1) Injektion der Kontrastmittel als Megluminsalzlösungen mit 180 mg Jod/ml mit einer Geschwindigkeit von 0,8 ml/min bei 100 g schweren männlichen und weiblichen Ratten. • 2) Männlichen und weiblichen Ratten im Gewicht von etwa 100 g wurden in leichter Äthernarkose je 0,04 ml unterschiedlich konzentrierter Kontrastmittellösungen nach der Methode von Valzelli durch eine natürliche Knochenspalte des Schädels zwischen Joch- und Hinterhauptbein intrazerebral injiziert. Die Injektion erfolgte mit einer Hamilton Spritze 710 N, bei der die Einstichtiefe auf 10 mm begrenzt ist. Je Präparat wurden mindestens 4 Dosierungen an 10 Tieren untersucht. Als Wirkungskriterien wurden über den Zeitraum von 24 Stunden Exzitationszustände, schwere Haltungsanomalien, Koma und Tod bewertet. • 3) Bei grundsätzlich gleicher Versuchsanlage wie unter 2) beschrieben, wurden 200-250 g schweren Ratten die Kontrastmittel in die Cisterna suboccipitalis injiziert. Die Kontrastmittel wurden mit 3%iger Mannit-lösung verdünnt, um den osmotischen Druck anzupassen. • 4) Ratten (ca. 150 g Körpergewicht) wurde in Ithernarkose ein Polyäthylenschlauch in den Ductus choledochus eingebunden. Etwa eine Stunde nachdem die Tiere aus der Narkose erwacht waren, wurden die Kontrastmittel in einer Dosis von 60 mg Jod/kg intravenös injiziert und die Galle bis 3 Stunden nach der Injektion fraktioniert gesammelt. • 5) Intakten Ratten von etwa 100 g Körpergewicht wurde 20 Minuten vor der Verabreichung des Kontrastmittels 5 ml Wasser und dann in 1-stündigem Abstand nach der Verabreichung der Prüfsubstanzen 3 mal je 2 ml Wasser oral verabreicht. bis 3 Stunden nach der i.v. Injektion des Kontrastmittels in einer Dosis von 60 mg Jod/kg wurde der Harn quantitativ gesammelt. • 4), 5) die Messung des Kontrastmittels erfolgte entweder aufgrund der ^131J-Aktivität in den Proben oder bei nicht radioaktiv markierten Kontrastmitteln mit Hilfe der Röntgenfluoreszenz des Jods.

[7] = test system: Leber; settings: dog; cited from earlier work
[8] = test system: Leber; settings: man; cited from earlier work
[9] = test system: Leber des Hundes; assay: Maximum enrichment in dog liver by computed tomography; settings: 360 mg Jod/kg i.v.; for maximale Anreicherung in der Leber des Hundes: meglumine salt solutions 180 mg Jod/ml, CT up to 90 min
Procedure: (§2) Die Werte wurden an gesunden weiblichen und männlichen Beagle-Hunden (Züchter: Schering) im Gewicht von 9-14 kg ermittelt.
(§3) Die Megluminsalzlösungen enthielten 180 mg Jod/ml.
(§4) Die Scanzeit betrug 20 Sekunden, die Röhrenspannung 120 kV. Bei einer Bildmatrix von 320 x 320 Elementen betrug die Standardabweichung vom Mittelwert eines normierten Wasserphantoms 1,6 % (d.h. + 8 EU = EMI-Units.
(§5) Die Auswertung der Computertomogramme stets des gleichen Leberareals erfolgte mit Hilfe der Auswerteeinheit "IVC" der Fa. EMI.

[10] = in vivo; settings: dog, iv
Procedure: as §2, §3, §4, §5

SMILES: O=C(CCCCC(=O)Nc1c(I)cc(I)c(C(=O)O)c1I)Nc1c(I)cc(I)c(C(=O)O)c1I [B, Iodipamid]
Verteilungskoeffizient Butanol/Wasser pH 7.4 [1]: 0,278 ± 0,008
fraction unbound [2]: 0.23
DL50, i.v., Ratte [3]: 2,6 g Jod/kg
Ratte, pericerebral, ED50 [4]: 6,35 (5,11-7,44) mg Jod/kg
Ratte, intrazisternal, ED50 [5]: 1,07 (0,54-1,83) mg Jod/kg
dose excreted at 0.5 h [6]: 59.4%
dose excreted at 3 h [6]: 91.5%

SMILES: CNC(=O)c1c(I)c(NC(=O)CCCCCCCCC(=O)Nc2c(I)c(C(=O)O)c(I)c(C(=O)NC)c2I)c(I)c(C(=O)O)c1I [D, Iosefamsäure]
Konzentration in der Leber [7]: noch ausreichende
Konzentration in der Leber [8]: nicht mehr genügende
maximale Anreicherung in der Leber des Hundes [9]: 22,8 EMI-Units
maximale Anreicherung in der Leber des Hundes, min. p. appl. ([9]; time of maximum enrichment): 80 min. p. appl.

Tmax [10]: 1.5 h
SMILES: CNC(=O)c1c(I)c(NC(=O)COCC(=O)N(C)c2c(I)cc(I)c(C(=O)O)c2I)c(I)c(C(=O)O)c1I [E, 3-Oxapentan-disäure-l-(3-carboxy-2,4,6-trijod-N-methylanilid)-5-(3-carboxy-5N-methylcarbamoyl-2,4,6-trijodanilid)]
maximale Anreicherung in der Leber des Hundes [9]: 42,1 EMI-Units

SMILES: CNC(=O)c1c(I)c(NC(=O)CCCCC(=O)Nc2c(I)cc(I)c(C(=O)O)c2I)c(I)c(C(=O)O)c1I [Verbindung A, Hexandisäure-1-(3-carboxy-2,4,6-trijod-anilid)-6-(3-carboxy-5-N-methylcarbamoyl-2,4,6-trijodanilid)]
Verteilungskoeffizient Butanol/Wasser pH 7.4 [1]: 0,083 ± 0,001
fraction unbound [2]: 0.57
DL50, i.v., Ratte [3]: 5,5 g Jod/kg
Ratte, pericerebral, ED50 [4]: 17,1 (11,8-23,6) mg Jod/kg
Ratte, intrazisternal, ED50 [5]: 15,6 (11,5-21,1) mg Jod/kg
dose excreted at 0.5 h [6]: 61.3%
dose excreted at 3 h [6]: 85.9%
